How the values were obtained:
[1] = test system: AR mRNA and protein in PC cells that survive ENZ treatment; test: AR expression in CWR22PC cells surviving ENZ treatment; assay type: cell-based, human; settings: ENZ 5 days, then PAC or FED for 4 days
[2] = test system: FL-AR and AR-V protein levels in CWR22Rv1 cells; test: Pilot experiment: FED on AR protein levels in CWR22Rv1 cells (IB); assay type: cell-based; settings: CWR22Rv1, 4 days
Source text: Jak2 was inhibited for 4 days by fedratinib (FED) at indicated concentrations followed by quantification of FL-AR, AR-V7 and AR-V9 protein levels by IB.
We conducted a pilot experiment to test the efficacy of FED in suppressing AR levels in PC cells (FIG. 16).

[3] = test system: CWR22PC PC cells that survive treatment with ENZ; test: Viability of CWR22PC cells surviving ENZ treatment; assay type: cell-based, human; settings: ENZ 5 days, then 300 nM for 4 days
Procedure: The PC cells were treated with ENZ (or vehicle) for 5 days, and were then treated with ENZ, vehicle, PAC, or FED for 4 days.
The effect of PAC and FED in blocking the growth of PC cells that survive treatment with the anti-androgen enzalutamide (ENZ) was tested in CWR22PC PC cells. The PC cells were treated in culture with ENZ (or vehicle) for 5 days, and were then treated with ENZ (40 μM), vehicle, PAC (300, 600 or 1200 nM), or FED (300, 600 or 1200 nM) for 4 days. […] Thus, PAC and FED can be used to reduce ENZ resistant PC cell growth.

[4] = test system: AR-FL, AR-V7 and AR-V9 mRNA expression; test: Low concentrations of FED and PAC on AR mRNA expression; assay type: cell-based; settings: 0-0.6 μM
Procedure: As a preliminary study, we tested whether low contrations of FED and PAC (0, 0.01875, 0.0375, 0.075, 0.15, 0.3, 0.6 μM) reduce mRNA expression of full-length (AR-FL) and variant (AR-V7 and AR-V9) forms of AR.

CWR22Rv1 PC cells = test: Death / viability of CWR22Rv1 PC cells treated with Jak2 inhibitors; assay type: cell-based; settings: for IC50: 72 h, CWR22Rv1, at 3 days, read-out: IC50, induction of death of CWR22Rv1 PC cells
Procedure: (§1) We tested whether Stat5 regulation of AR mRNA and protein levels provides an opportunity to control AR levels pharmacologically by inhibition of Jak2 signaling. […] Finally, to evaluate the effect of PAC and FED on PC cell viability, CWR22Rv1 cells were treated with increasing concentrations of PAC or FED for 3 days.

[5] = test system: androgen-responsive PC cell viability; test: PC cell viability time-course versus androgen withdrawal (crystal violet staining and cell counting); assay type: cell-based
Source text: Crystal violet staining and cell counting were used to compare PC viability over a time-course of 2-10 days between cells treated with ADT and control (+ADT), cells treated with PAC and control (+DMSO), cells treated with FED and control (+DMSO), cells treated with Jak2 knockdown (shJak2) and control (shCtrl), and cells treated with Stat5 knockdown (shStat5) and control (shCtrl).
Next, we compared the effect of androgen deprivation therapy (ADT) carried out by androgen withdrawal, which is the standard therapy used to treat advanced prostate, to the effect of PAC and FED on androgen-responsive PC cell viability over a time-course of 2-10 days using crystal violet staining and cell counting. Based on this analysis, ADT decreased cell viability by 30% compared to control (+DHT), PAC decreased cell viability by 82% after 4 days of treatment and by 96% after 6 days of treatment compared to the control (+DMSO), FED decreased cell viability by 87% after 4 days of treatment and by 98% after 6 days of treatment compared to control (+DMSO), Jak2 knockdown (shJak2) decreased cell viability by 92% after 4 days of lentivirus infection and by 95% after 6 days of lentivirus infection compared to control (shCtrl), and Stat5 knockdown (shStat5) decreased cell viability by 96% after 4 days of lentivirus infection and by 98% after 6 days of lentivirus infection compared to control (shCtrl) (FIG. 25).

[6] = test system: AR mRNA and protein expression in CWR22PC cells; test: PAC and FED on AR expression after Stat5-shRNA in CWR22PC cells; assay type: cell-based, human; settings: lentiviral Stat5-shRNA
Source text: We tested whether PAC and FED are able to further reduce AR mRNA and/or protein expression following genetic suppression of AR gene expression via lentiviral expression of Stat5-shRNA in CWR22PC cells.

[7] = test system: FL-AR, AR-V7 and AR-V9 mRNA and AR protein levels in PC cells; test: AR mRNA (qRT-PCR) and AR / pYStat5 protein (immunoblot) in PC cells treated with Jak2 inhibitors; assay type: cell-based; settings: for FL and AR-V AR mRNA and protein levels: CWR22Rv1 CRPC cell line, FIGS. 6A-6B
Procedure: Jak2 was inhibited for 3 days by Jak2 inhibitors AZD1480, gandotinib, pacritinib, baricitinib or fedratinib at indicated concentrations followed by RNA extraction and quantification of FL-AR, AR-V7 and AR-V9 mRNA levels by qRT-PCR.
Immunoblot analysis of AR expression in PC cells treated with increasing concentrations of Jak2 inhibitors AZD1480, gandotinib, pacritinib or baricitinib for 72 h.
as §1

[8] = test system: AR mRNA and protein levels in CWR22Pc tumors; test: AR levels in CWR22Pc xenograft tumors in nude mice; assay type: in vivo; settings: 40 mg/kg i.p. daily for 40 days
Procedure: FIG. 4A. Pharmacological Stat5 inhibition decreases AR protein and mRNA levels in PC xenograft tumors in nude mice. Nuclear AR and Stat5 levels were detected by immunostaining of paraffin-embedded tissue sections of CWR22Pc tumors from mice treated with IST5-002 (IST5) (40 mg/kg; i.p.) for 40 days. Also, AR mRNA levels were evaluated by q-RT-PCR. FIG. 4B. Pharmacological inhibition of Stat5 by IST5-002 or pacritinib suppress AR mRNA levels in patient-derived PCs cultured ex vivo. Clinical PCs (n=4) obtained from prostatectomies were cultured for 7 days ex vivo in 3D tumor explant cultures in the presence of Stat5 inhibitor IST5-002 (12.5 μM) or PAC (1 μM) vs. vehicle, and AR mRNA levels were analyzed by qRT-PCR.
To evaluate whether Stat5 regulation of AR mRNA and protein levels is evident in an in vivo setting where PC cells were grown as xenograft tumors in mice, CWR22Pc cells (1.5×10^7) were inoculated subcutaneously into flanks of nude mice (one tumor/mouse). After tumors reached approximately 100 mm^3 in size (12 d), mice were treated daily for 40 days by intraperitoneal injection with IST5-002 (40 mg/kg body weight) or vehicle (0.3% hydroxypropyl cellulose/H2O) (5 mice/group). AR mRNA and protein levels were evaluated by q-RT-PCR(47) and by immunohistochemistry, as previously described(18, 45, 46, 48, 49).

[9] = test system: AR-FL, AR-V7 and AR-V9 expression and Stat5 phosphorylation in PC cell lines; test: Clinical grade versus research grade pacritinib: Stat5 phosphorylation and AR expression in PC cell lines; assay type: cell-based
Procedure: Control cells were treated with […] (ShCtrl).
The ability of clinical grade pacritinib (CTI Biopharma) to inhibit Stat5 phosphorylation and suppress AR expression in prostate cancer cells in vitro was compared to that of research grade pacritinib (MedChem Express (MCE)) and to cells in which Jak2 was knocked down using lentivirus expressing Jak2-shRNA (shJak2). […] Thus, clinical grade pacritinib induces the same effects as research grade pacrtinib, suppressing AR levels and reducing PC cell viability.

[10] = test system: AR protein levels in CWR22PC cells; test: Time-course of AR protein levels in CWR22PC cells; assay type: cell-based, human; settings: timepoints 12-72 h
[11] = test system: Stat5 and Jak2 phosphorylation in PC cells; test: ENZ-induced Jak2-Stat5 phosphorylation in PC cells (IP and WB); assay type: cell-based; settings: CWR22Pc, LAPC4 and CWR22Pc-ENZ-R cells; AZD1480 800 nM, 12 days
Procedure: CWR22Pc and LAPC4 PC cells were treated with ENZ or vehicle for the indicated periods of time. Levels of active Stat5 were determined by immunoprecipitation (IP) of Stat5 followed by immunoblotting (WB) for pStat5a/b and total Stat5. Whole cell lysates (WCL) were immunoblotted for pStat3, Stat3 and Actin. […] CWR22Pc and LAPC4 cells were transduced with lentiviral AR shRNA (shAR) or lenti-shCtrl for 3 days followed by treatment with ENZ or vehicle for 7 days at the indicated concentrations.
PC cells were cultured with ENZ or Jak2 inhibitor AZD1480 (800 nM) alone or in combination for 12 days. Expression levels of active Stat5 were determined by IP of Stat5 followed by WB for pStat5a/b and total Stat5. WCLs were immunoblotted for pStat3, Stat3 and Actin. […] Jak2 was suppressed by lentiviral Jak2 shRNA vs. shCtrl in PC cells for 3 days followed by ENZ or vehicle for 7 days. Active Stat5, Stat5 and Jak2 levels were evaluated by IP and WB, as depicted. […] PC cells were treated with ENZ or vehicle for 6 h at the indicated concentrations. Control cells were stimulated with prolactin (Prl) (10 nM) for 20 min as control for cytokine-induced Jak2 phosphorylation. […] Alternatively, PC cells were treated with ENZ or vehicle for 12 days or stimulated with Prl for 20 min at the indicated concentrations. Stat5 and Jak2 were IP:ed and WB:ed for pStat5, pJak2, tot Stat5, and total Jak2.
To investigate whether AR is required for ENZ induction of Stat5 signaling, we inhibited AR expression in CWR22Pc and LAPC4 cells by genetic knockdown using lentiviral expression of AR shRNA (FIG. 9C).
To further assess the involvement of Jak2 in ENZ-induced Stat5 activation, Jak2 was genetically knocked down by lentiviral expression of Jak2 shRNA in CWR22Pc and LAPC4 cells for 3 days followed by ENZ treatment for 7 days.

Cc1cnc(Nc2ccc(OCCN3CCCC3)cc2)nc1Nc1cccc(S(=O)(=O)NC(C)(C)C)c1 [fedratinib, N-tert-Butyl-3-{5-methyl-2-[4-(2-pyrrolidin-1-yl-ethoxy)-phenylamino]-pyrimidin-4-ylamino}-benzenesulfonamide]
AR expression at mRNA and protein level in PC cells that survive ENZ treatment [1]: reduces expression of AR at both the mRNA and protein level | FL-AR and AR-V protein levels [2]: depletes FL-AR and AR-V protein levels almost entirely | growth / viability of PC cells surviving ENZ treatment [3]: able to block the growth PC cells surviving ENZ treatment with very high efficacy | mRNA expression of AR-FL, AR-V7 and AR-V9 versus concentration [4]: AR expression levels decrease with increased concentrations | IC50 (CWR22Rv1 PC cells): 300 nM | decrease in cell viability compared to control (+DMSO) ([5]; after 4 days of treatment): 87% | decrease in cell viability compared to control (+DMSO) ([5]; after 6 days of treatment): 98% | further reduction of AR mRNA/protein expression after Stat5-shRNA [6]: no further decrease in AR expression levels | FL and AR-V AR mRNA and protein levels [7]: dose-dependent reduction

O=P(O)(O)OC[C@H]1O[C@@H](n2cnc3c(NCc4ccccc4)ncnc32)[C@H](O)[C@@H]1O [IST5-002]
AR mRNA and protein expression in PC tumors in vivo [8]: marked decrease in AR mRNA and protein expression

C1=C/COCc2cc(ccc2OCCN2CCCC2)Nc2nccc(n2)-c2cccc(c2)COC/1 [pacritinib, (16E)-11-[2-(1-Pyrrolidinyl)ethoxy]-14,19-dioxa-5,7,26-triazatetracyclo[19.3.1.12,6.18,12]heptacosa-1(25),2(26),3,5,8,10,12(27),16,21,23-decaene]
AR expression at mRNA and protein level in PC cells that survive ENZ treatment [1]: reduces expression of AR at both the mRNA and protein level | growth / viability of PC cells surviving ENZ treatment [3]: able to block the growth PC cells surviving ENZ treatment with very high efficacy | mRNA expression of AR-FL, AR-V7 and AR-V9 versus concentration [4]: AR expression levels decrease with increased concentrations | IC50 (CWR22Rv1 PC cells): 300 nM | decrease in cell viability compared to control (+DMSO) ([5]; after 4 days of treatment): 82% | decrease in cell viability compared to control (+DMSO) ([5]; after 6 days of treatment): 96% | further reduction of AR mRNA/protein expression after Stat5-shRNA [6]: no further decrease in AR expression levels | FL and AR-V AR mRNA and protein levels [7]: dose-dependent reduction | efficacy in suppressing AR protein expression relative to research grade pacritinib ([9]; CWR22PC and CWR22Rv1, FIG. 18): has higher efficacy than research grade pacritinib (MCE) | phosphorylation of Stat5 ([9]; CWR22Pc, LAPC4): decreases phosphorylation of Stat5 | AR expression at the protein level ([9]; CWR22Rv1 and CWR22PC): caused a reduction in AR expression at the protein level | mRNA expression of AR-FL, AR-V7 and AR-V9 ([9]; CWR22Rv1 and CWR22PC): reduced mRNA expression levels of both full-length (AR-FL) and variant (AR-V7 and AR-V9) forms of AR | efficacy in suppressing AR mRNA expression relative to research grade pacritinib ([9]; CWR22Rv1 and CWR22PC, FIG. 17): has higher efficacy than research grade pacritinib (MCE) | time after treatment at which AR protein levels start to decrease [10]: 48 h

N#CCNC(=O)c1ccc(-c2ccnc(Nc3ccc(N4CCOCC4)cc3)n2)cc1 [momelotinib]
induction of death of PC cells (CWR22Rv1 PC cells; FIG. 7D, 7E): does not provide the same effect of beneficial induction of cell death | AR protein levels in PC cells ([7]; 72 h, immunoblot, FIG. 6B): did not result in the suppression of AR protein levels | AR mRNA levels in PC cells ([7]; 3 days, qRT-PCR, FIG. 6A): does not suppress AR expression in PC cells | FL and AR-V AR mRNA and protein levels [7]: dose-dependent reduction | Stat5 phosphorylation ([7]; prostate cancer cells, FIG. 6B): does not inhibit Stat5 phosphorylation

CCS(=O)(=O)N1CC(CC#N)(n2cc(-c3ncnc4[nH]ccc34)cn2)C1 [baricitinib, 2-[1-Ethylsulfonyl-3-[4-(7H-pyrrolo[2,3-d]pyrimidin-4-yl)pyrazol-1-yl]azetidin-3-yl]acetonitrile]
FL and AR-V AR mRNA and protein levels [7]: dose-dependent reduction

Cc1cc(Nc2nc(N[C@@H](C)c3ncc(F)cn3)ncc2Cl)n[nH]1 [AZD1480, 5-chloro-2-N-[(1S)-1-(5-fluoropyrimidin-2-yl)ethyl]-4-N-(5-methyl-1H-pyrazol-3-yl)pyrimidine-2,4-diamine]
ENZ-induced Stat5 phosphorylation [11]: blocked ENZ-induced Stat5 phosphorylation | FL and AR-V AR mRNA and protein levels [7]: dose-dependent reduction

Cc1cc(Nc2cc(CN3CCOCC3)c3nc(C)c(Cc4ccc(Cl)cc4F)n3n2)n[nH]1 [gandotinib, 3-(4-Chloro-2-fluorobenzyl)-2-methyl-N-(5-methyl-1H-pyrazol-3-yl)-8-(morpholinomethyl)imidazo[1,2-b]pyridazin-6-amine]
IC50 (CWR22Rv1 PC cells): 300 nM | FL and AR-V AR mRNA and protein levels [7]: dose-dependent reduction

Source: patent publication US20220323444A1, “Methods of Treating Advanced Prostate Cancer” (The Medical College of Wisconsin, Inc., priority 2019, published 2022)
